In data set [1] the target is T1, hsMTHFRCD-RD (Homo sapiens, UniProt P42898).
T1 construct: encompassing just the CD and RD (amino acids 38–644; hsMTHFRCD-RD); made in house
The data set can be described thus: MIDAS protein-metabolite interactomics (equilibrium dialysis FIA-MS), CD-RD construct. As to conditions: Fig. 2B. Type of data set: binding. The protocol:
(§1) Protein–metabolite interactomics using an updated MIDAS screening platform was performed as reported previously. Briefly, a flow-injection analysis mass-spectrometry (FIA-MS) method utilising a validated library of 400 metabolite standards was combined into four unique and defined screening pools in 150 mM ammonium acetate pH 7.4. For each metabolite pool, 8 μl of hsMTHFRCD-RD (542 μM) or hsMTHFRRD (240 μM) protein was arrayed in triplicate across a SWISSCI 10 MWC 96-well microdialysis plate (protein chambers). To the trans side of each dialysis well, 300 μl of a metabolite pool (50 μM per metabolite) was arrayed in triplicate for each target protein (metabolite chambers). Dialysis plates were placed in the dark at 4 °C on a rotating shaker (150 rev min−1) and incubated for 40 h. Post-dialysis, protein- and metabolite-chamber dialysates were normalized and diluted 1:10 in 80% methanol, incubated for 30 min on ice, and centrifuged at 3200 RCF for 15 min to remove precipitated protein. Metabolite pool analytes were arrayed across a 384-well microvolume plate and placed at 4 °C in a Shimadzu SIL-20ACXR autosampler for FIA-MS metabolomics analysis. 2 μl of each sample was analysed in technical triplicate by FIA-MS on a SCIEX X500R QTOF MS with interspersed injections of blanks.
FIA-MS spectra from MIDAS protein–metabolite interactomics was qualitatively and quantitatively processed in SCIEX OS 1.6 software to determine relative metabolite abundance by integrating the mean area under the extracted-ion chromatogram curve across technical triplicates. Log2 (fold change) for each metabolite was calculated from the relative metabolite abundance in the protein chamber (numerator) and metabolite chamber (denominator) from dialysis triplicates. For each technical triplicate, up to one outlier was removed using a z-score cutoff of five (<0.1% of observations). The corrected technical replicates were collapsed to one mean fold-change summary per protein–metabolite pair. To remove fold-change variation that was not specific to a given metabolite–protein pair, the first three principal components of the total MIDAS dataset were removed (∼75% of observed variance) creating Log2 (corrected fold change). Protein–metabolite z-scores were determined by comparing the target protein–metabolite Log2 (corrected fold change) to a no-signal model for that metabolite using measures of the central tendency (median) and standard deviation (extrapolated from the 25–75% quantiles) which are not biased by the signals in the tails of a metabolite’s fold-change distribution. Z-scores were controlled for false-discovery rate using Storey’s q value (http://github.com/jdstorey/qvalue). Protein–metabolite interactions with p-values < 0.05 and q-values < 0.1 were considered significant.
On the technique in general: In equilibrium dialysis only unbound substance equilibrates across the membrane.

Data set [2] deals with T2, hsMTHFRRD (Homo sapiens, UniProt P42898).
T2 construct: encompassing the RD and part of the linker region (amino acids 348–656; hsMTHFRRD); made in house
T2 sequence (P42898 348-656): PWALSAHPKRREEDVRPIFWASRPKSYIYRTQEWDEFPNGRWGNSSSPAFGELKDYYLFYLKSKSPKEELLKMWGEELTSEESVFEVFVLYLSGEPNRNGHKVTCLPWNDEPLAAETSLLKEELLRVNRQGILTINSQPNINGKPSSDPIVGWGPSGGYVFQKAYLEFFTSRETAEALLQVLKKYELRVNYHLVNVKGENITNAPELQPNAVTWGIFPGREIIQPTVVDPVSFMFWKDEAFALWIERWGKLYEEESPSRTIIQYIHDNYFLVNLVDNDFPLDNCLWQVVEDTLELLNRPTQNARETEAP
The data set can be described thus: Differential scanning fluorimetry binding assay. As to conditions: up to 250 μM compound, 0.1 mg ml^−1 hsMTHFRRD. The protocol: Differential scanning fluorimetry was used to assay shifts in melting temperature caused by ligand binding in a 96-well PCR plate using an LC480 light cyler (Roche). Each well (20 μl) consisted of hsMTHFRRD protein (0.1 mg ml^−1), SYPRO-Orange (Invitrogen) diluted 1000X, and buffer (10 mM HEPES pH 7.5, 500 mM NaCl) in the presence of 0–250 μM AdoMet, AdoHcy or analogue compounds. Analogue compounds were part of a AdoMet library consisting of 162 synthetic analogues of adenosine scaffolds which were compiled from the SGC’s compound collection.

For data set [3], the target named is T1, hsMTHFRCD-RD. The data set can be described thus: Surface plasmon resonance, CD-RD construct. Format: binding. As to conditions: SPR, read-out: Kd (dissociation constant). The protocol: (§2) For determination of the affinity between hsMTHFRCD-RD and (S)-SKI-72, 30 μg of hsMTHFRCD-RD was immobilized onto Sensor Chip CM5 sensor (series S) to a density of 7500 RU via the protein –NH2 groups employing 1-Ethyl-3-(3-dimethylaminoproppyl)carbodiimide crosslinker (EDC) and N-hydroxysuccinimide (NHS) in acetate buffer pH 4.0. For the binding experiment, (S)-SKI-72 was serially diluted (1:1) from 6.25 μM to 0.05 μM in 20 mM HEPES pH 7.5, 150 mM NaCl, 0.5 mM TCEP, 0.05% TWEEN-20, 5% DMSO and subsequently injected at a 30 μL/min flow rate over the sensor. […] For the binding experiment, (S)-SKI-72 was serially diluted from 12.5 μM to 0.012 μM and AdoMet was serially diluted from 25 μM to 0.19 μM and subsequently injected at a 30 μL/min flow rate over the sensor. Data were analysed using the Biacore S200 Evaluation Software.
For orientation: SPR reads the build-up and loss of mass on a sensor chip optically.

The target in data set [4] is T2, hsMTHFRRD. The data set can be described thus: Surface plasmon resonance, regulatory domain. The conditions noted are these: SPR, steady state affinity fit, read-out: Kd (dissociation constant). Type of data set: binding. The protocol:
as §2

In data set [5] the target is T3, hsMTHFRFL (Homo sapiens, UniProt P42898).
T3 construct: encompassing the full-length (amino acids 1–656; hsMTHFRFL); made in house
The data set can be described thus: MTHFR enzyme activity assay (physiological forward assay), purified enzyme. The conditions noted are these: for Ki: four-parameter curve fit, n = 3. Type of data set: biochemical. The procedure:
(§3) All enzymatic assays were performed using the physiological forward assay described by Suormala et al.. For (S)-SKI-72 inhibition in […] (ATCC: CRL-3216) cell lysates, the assay was performed with the modifications described by Rummel et al. and Burda et al.. For (S)-SKI-73 inhibition of intact HEK293 cells, 300,000 cells/well of a 6-well plate were allowed to settle overnight. The next day, media containing Dulbecco’s Modified Eagle Medium (Gibco) supplemented with 10% fetal bovine serum (Gibco) and 1% antibiotic/antimycotic (Gibco) was exchanged to fresh media of the same composition plus the indicated concentration of (S)-SKI-73. Following incubation for 12 or 48 h, cells were harvested, lysed and assayed as previously described. Assay of hsMTHFRFL was performed as described. Purified AdoMet was used for inhibition. Sinefungin was purchased from Sigma-Aldrich (Cat# S8559). The Ki for each compound was estimated following a plot of inhibitor versus response and a four-parameter curve fit as performed by GraphPad Prism (v8.00).

Data set [6] deals with T4, endogenous MTHFR from HEK293 cell lysate (Homo sapiens, UniProt P42898).
T4 construct: Remaining activity of endogenous MTHFR from HEK293 cell lysate; host or cells: HEK293
The data set can be described thus: MTHFR enzyme activity assay in HEK293 cell lysate. Format: biochemical. As to conditions: for Ki: n = 3. The protocol: as §3

On the set-up of data set [7]: method as in PMID 31657716. As to conditions: cited from earlier work.
Data set [8] has as its target T2, hsMTHFRRD. The data set can be described thus: MIDAS protein-metabolite interactomics (equilibrium dialysis FIA-MS), regulatory domain alone. Format: binding. The conditions noted are these: Fig. 2C. The procedure:
as §1, with “Post-dialysis, protein- and metabolite-chamber dialysates were normalized and diluted 1:10 in 80% methanol, incubated for 30 min on ice, and centrifuged at 3200 RCF for 15 min to remove precipitated protein. Metabolite pool analytes were arrayed across a 384-well microvolume plate and placed at 4 °C in a Shimadzu SIL-20ACXR autosampler for FIA-MS metabolomics analysis.” left out
FIA-MS spectra from MIDAS protein–metabolite interactomics was qualitatively and quantitatively processed in SCIEX OS 1.6 software to determine relative metabolite abundance by integrating the mean area under the extracted-ion chromatogram curve across technical triplicates. Log2 (fold change) for each metabolite was calculated from the relative metabolite abundance in the protein chamber (numerator) and metabolite chamber (denominator) from dialysis triplicates. […]

The values that follow come from publication PMC8040968, “Identification of small molecule allosteric modulators of 5,10-methylenetetrahydrofolate reductase (MTHFR) by targeting its unique regulatory domain” (Biochimie, 2021).

Values joined by “and” are separate entries in the source; they are usually repeats but may differ in a detail not shown here. Identical values can stand only once. Like-named read-outs stand apart in the source and are kept apart here.

T1 sequence (P42898 38-644): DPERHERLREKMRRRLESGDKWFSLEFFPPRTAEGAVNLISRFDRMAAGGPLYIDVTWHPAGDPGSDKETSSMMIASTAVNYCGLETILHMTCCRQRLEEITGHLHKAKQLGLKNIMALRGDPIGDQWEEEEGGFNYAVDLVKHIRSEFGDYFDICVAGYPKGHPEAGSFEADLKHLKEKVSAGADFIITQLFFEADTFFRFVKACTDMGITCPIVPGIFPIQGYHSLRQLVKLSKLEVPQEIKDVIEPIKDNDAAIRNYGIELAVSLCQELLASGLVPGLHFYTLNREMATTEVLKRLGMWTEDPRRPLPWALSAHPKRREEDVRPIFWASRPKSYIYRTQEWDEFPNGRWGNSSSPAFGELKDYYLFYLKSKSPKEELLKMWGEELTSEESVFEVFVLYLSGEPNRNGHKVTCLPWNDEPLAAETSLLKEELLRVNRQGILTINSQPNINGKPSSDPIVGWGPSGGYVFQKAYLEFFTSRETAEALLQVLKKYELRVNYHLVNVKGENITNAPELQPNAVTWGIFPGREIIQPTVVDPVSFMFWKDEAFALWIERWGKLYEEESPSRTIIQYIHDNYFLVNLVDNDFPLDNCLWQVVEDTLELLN
T4 sequence (P42898 whole entry): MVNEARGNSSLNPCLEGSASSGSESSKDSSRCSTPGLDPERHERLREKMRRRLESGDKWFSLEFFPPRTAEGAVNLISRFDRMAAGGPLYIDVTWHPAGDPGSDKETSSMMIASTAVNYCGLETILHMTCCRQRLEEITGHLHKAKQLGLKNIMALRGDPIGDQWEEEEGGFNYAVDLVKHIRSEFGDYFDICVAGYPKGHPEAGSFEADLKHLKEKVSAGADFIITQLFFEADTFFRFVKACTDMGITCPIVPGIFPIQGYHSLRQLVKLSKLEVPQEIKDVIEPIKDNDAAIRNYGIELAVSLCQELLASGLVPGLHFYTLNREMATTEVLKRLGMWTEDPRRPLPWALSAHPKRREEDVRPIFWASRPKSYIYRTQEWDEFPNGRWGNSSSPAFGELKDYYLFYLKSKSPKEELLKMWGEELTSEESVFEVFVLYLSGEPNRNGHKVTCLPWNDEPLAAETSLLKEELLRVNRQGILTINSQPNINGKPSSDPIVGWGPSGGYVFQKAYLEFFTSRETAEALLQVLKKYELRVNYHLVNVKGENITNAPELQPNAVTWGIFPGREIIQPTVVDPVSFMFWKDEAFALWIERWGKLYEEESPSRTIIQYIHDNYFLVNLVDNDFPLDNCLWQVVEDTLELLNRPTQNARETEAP
T3 sequence (P42898 whole entry, the tested form may be a part): as the sequence (P42898 whole entry) above

Regarding `NC(=O)C1=CN([C@@H]2O[C@H](COP(=O)(O)OP(=O)(O)OC[C@H]3O[C@@H](n4cnc5c(N)ncnc54)[C@H](OP(=O)(O)O)[C@@H]3O)[C@@H](O)[C@H]2O)C=CC1` [NADPH], the “MIDAS enrichment or depletion of metabolite” value (shortened to “MIDAS enrichment or depletion”) in data set [1] is listed as “depleted”.
For `COc1ccc(CCNC(=O)[C@@H](N)CC[C@H](CNCc2ccccc2)C[C@H]2O[C@@H](n3cnc4c(N)ncnc43)[C@H](O)[C@@H]2O)cc1` [(S)-SKI-72], the Tm shift result in data set [2] was “approximately 10 °C”. Also, the dissociation constant Kd in data set [3] (as printed in Fig. 3A) is 600 nM; in data set [3] (steady state affinity fit), 612 nM and 596 nM; in data set [4] it was 1470 nM and 1170 nM and 1500 nM. Further, the “residual activity at high concentrations” value in data set [5] (purified hsMTHFRFL, even at high concentrations) was roughly 30%. Also, the Ki in data set [5] (purified hsMTHFRFL) was determined as 780 ± 50 nM; in data set [6], 3000 ± 200 nM. Besides, in data set [6], the “residual activity at the highest concentrations tested” value is recorded as “approximately 50%”. The membrane permeability entry in data set [7] is listed as “poor”.
`C[S+](CC[C@H](N)C(=O)[O-])C[C@H]1O[C@@H](n2cnc3c(N)ncnc32)[C@H](O)[C@@H]1O` (stereo partly shown) [AdoMet, S-adenosylmethionine]: the “MIDAS enrichment or depletion” value in data set [1] and in data set [8] was “enriched” in each case. Further, in data set [2], the Tm shift entry is “approximately 4 °C”. The Kd in data set [4] is 4300 nM and 1060 nM. The inhibition constant Ki is 5800 ± 200 nM in data set [5] (purified hsMTHFRFL); 8200 nM and 6800 nM in data set [6].
`Nc1ncnc2c1ncn2[C@@H]1O[C@H](CSCC[C@H](N)C(=O)O)[C@@H](O)[C@H]1O` [AdoHcy, S-adenosylhomocysteine]: the “MIDAS enrichment or depletion” value in data set [1] and in data set [8] was “enriched” in each case. In data set [2], the Tm shift was roughly 7 °C.
For `Cc1cc2nc3c(=O)[nH]c(=O)nc-3n(C[C@H](O)[C@H](O)[C@H](O)COP(=O)(O)OP(=O)(O)OC[C@H]3O[C@@H](n4cnc5c(N)ncnc54)[C@H](O)[C@@H]3O)c2cc1C` [FAD, flavin adenine dinucleotide], the “MIDAS enrichment or depletion” value in data set [1] was “enriched”.
Still for that read-out and setting: as for `NC(=O)C1=CN([C@@H]2O[C@H](COP(=O)(O)OP(=O)(O)OC[C@H]3O[C@@H](n4cnc5c(N)ncnc54)[C@H](O)[C@@H]3O)[C@@H](O)[C@H]2O)C=CC1` [NADH], the entry is “depleted”.
Still for that read-out and setting: as for `CN1c2c(nc(N)[nH]c2=O)NCC1CNc1ccc(C(=O)N[C@@H](CCC(=O)O)C(=O)O)cc1` (stereo partly shown) [5-MTHF, 5-methyltetrahydrofolate], the entry is “depleted”.
The same measure, in the same setting: as for `Nc1nc2c(c(=O)[nH]1)N(C=O)C(CNc1ccc(C(=O)N[C@@H](CCC(=O)O)C(=O)O)cc1)CN2` (stereo partly shown) [5-FTHF, 5-formyltetrahydrofolate], the entry is “enriched”.
In the case of `Nc1ncnc2c1ncn2[C@@H]1O[C@H](C[C@@H](N)CC[C@H](N)C(=O)O)[C@@H](O)[C@H]1O` [Sinefungin, sinefungin], the “effect on the activity of hsMTHFRFL” value in data set [5] (concentrations up to ∼100 μM, above that appeared to inhibit) is “no effect”.
Regarding `Nc1nc(=O)c2nc(CNc3ccc(C(=O)N[C@@H](CCC(=O)O)C(=O)O)cc3)cnc2[nH]1` [folate], the “MIDAS enrichment or depletion” value in data set [1] is “enriched”.

The term Kd denotes the constant that tells how readily two partners part at equilibrium. For orientation: residual activity means the share of the control activity or signal that is left under treatment. High values mean a small loss of activity, low ones a large loss of activity. Broadly, the Ki is a dissociation constant, usually derived from enzyme kinetics or from competition with a known ligand. A higher Ki goes with a looser hold on the target.
